Assay [1] deals with T1, pancreatic lipase (Sus scrofa, UniProt P00591).
T1 construct: gene PNLIP
T1 sequence (P00591 1-450): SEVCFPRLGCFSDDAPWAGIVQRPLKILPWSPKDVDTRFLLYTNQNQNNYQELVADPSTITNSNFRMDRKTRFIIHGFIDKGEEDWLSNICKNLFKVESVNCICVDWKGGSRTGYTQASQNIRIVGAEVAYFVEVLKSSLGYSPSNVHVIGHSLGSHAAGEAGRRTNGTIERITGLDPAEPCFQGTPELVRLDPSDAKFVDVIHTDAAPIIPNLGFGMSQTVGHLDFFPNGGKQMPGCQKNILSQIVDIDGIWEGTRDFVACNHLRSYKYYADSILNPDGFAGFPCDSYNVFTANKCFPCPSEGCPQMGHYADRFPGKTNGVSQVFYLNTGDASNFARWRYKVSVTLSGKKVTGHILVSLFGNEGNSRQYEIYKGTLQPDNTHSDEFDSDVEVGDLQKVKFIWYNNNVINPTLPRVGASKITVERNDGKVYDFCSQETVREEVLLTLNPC
Put plainly: biochemical.
Procedure: As a substrate, 4-MU oleate was used to test the activity of pancreatic lipase. A mixture of 4-MU oleate solution (50 μL) and different concentrations of test sample (25 μL) were added in the 96-well microtiter plate. Then, lipase solution (50 U/mL, 25 μL) was added and incubated (30 min, 25 °C). To stop the reaction, sodium citrate solution (0.1 M, 0.1 mL, pH 4.2) was added. The level of the product 4-methylumbelliferone was measured by a fluorescence reader (Tecan, Switzerland, Ex/Em = 355 nm/460 nm). The lipase inhibition rate (%) of each test was calculated by equation (4): IC50 of the test samples was calculated on the basis of least-squares regression line of plots of different concentrations (log) against the lipase inhibition rate (%).

The target of assay [2] is T1, pancreatic lipase. Kind of assay: fluorescent 4-MU oleate hydrolysis assay, type VI-S pancreatic lipase. The assay is classed as biochemical.

This passage reports IC50 results from publication PMC5046073, “Prediction and evaluation of the lipase inhibitory activities of tea polyphenols with 3D-QSAR models” (Scientific Reports, 2016).

Bounds are passed on as bounds.

By IC50 is commonly meant the concentration at which inhibition is half-maximal. A higher IC50 goes with a need for much substance. As to `O=C(O[C@@H]1Cc2c(O)cc(O)cc2O[C@@H]1c1cc(O)c(O)c(O)c1-c1c([C@H]2Oc3cc(O)cc(O)c3C[C@H]2O)cc(O)c(O)c1O)c1cc(O)c(O)c(O)c1` [compound 36, theasinensin B], in assay [1], it took 0.3 µM to reach half-maximal inhibition (IC50).

On to `Oc1cc(O)c2c(c1)O[C@H](c1cc(O)c(O)c(O)c1)[C@@H](O)[C@@H]2c1c(O)cc(O)c2c1O[C@H](c1cc(O)c(O)c(O)c1)[C@H](O)C2` [compound 30, prodelphinidin B4], for which half-maximal inhibition in assay [1] (IC50) was put at 6.85 µM.

In assay [1], `Oc1cc(O)c2c(c1)O[C@H](c1ccc(O)c(O)c1)[C@@H](O)[C@@H]2c1c(O)cc(O)c2c1O[C@H](c1cc(O)c(O)c(O)c1)[C@H](O)C2` [compound 16, (+)-catechin (4α-8) (−)-epigallocatechin] registered an IC50 of 8.7 µM.

With `O=C(Oc1cc(O)cc2c1C[C@@H](OC(=O)c1cc(O)c(O)c(O)c1)[C@@H](c1cc(O)c(O)c(O)c1)O2)c1cc(O)c(O)c(O)c1` [compound 8, (−)-epigallocatechin-3,5-di-O-gallate], in assay [2], it took 0.11 µM to reach half-maximal inhibition (IC50).

In assay [2], `O=C(OC1Cc2c(O)cc(O)c(Cc3c(O)cc(O)c4c3OC(c3cc(O)c(O)c(O)c3)C(OC(=O)c3cc(O)c(O)c(O)c3)C4)c2OC1c1cc(O)c(O)c(O)c1)c1cc(O)c(O)c(O)c1` (centres unmarked) [compound 20, oolonghomobisflavan A] registered an IC50 of 0.11 µM.

For `O=C(O[C@@H]1[C@@H](c2c(O)cc(O)c3c2O[C@H](c2cc(O)c(O)c(O)c2)[C@H](OC(=O)c2cc(O)c(O)c(O)c2)C3)c2c(O)cc(O)cc2O[C@@H]1c1ccc(O)c(O)c1)c1cc(O)c(O)c(O)c1` [compound 13, (−)-epicatechin-3-O-gallate-(4β-8)-(−)-epigallocatechin3-O-gallate], in assay [1] (inhibitor), the midpoint of inhibition, the IC50, lay at 0.93 µM.

In assay [1], `Oc1cc(O)c2c(c1)O[C@H](c1ccc(O)c(O)c1)[C@@H](O)[C@@H]2c1c(O)cc(O)c2c1O[C@H](c1ccc(O)c(O)c1)[C@H](O)C2` [compound 25, procyanidin B4] had an IC50 of 17.3 µM.

With `O=C(OC1Cc2c(O)cc(O)c(C(c3cc(O)c(O)c(O)c3)C(Cc3c(O)cc(O)cc3O)OC(=O)c3cc(O)c(O)c(O)c3)c2OC1c1cc(O)c(O)c(O)c1)c1cc(O)c(O)c(O)c1` (centres unmarked) [compound 1, assamicain A], the IC50 in assay [1] (inhibitor) was found to be 0.13 µM.

In turn, `O=C(O[C@@H]1Cc2c(O)cc(O)cc2O[C@@H]1c1cc(O)c(O)c(O)c1-c1c([C@H]2Oc3cc(O)cc(O)c3C[C@H]2OC(=O)c2cc(O)c(O)c(O)c2)cc(O)c(O)c1O)c1cc(O)c(O)c(O)c1` [compound 35, theasinensin A] gave an IC50 in assay [2] of 0.15 µM.

On to `O=C(O[C@@H]1Cc2c(O)cc(O)cc2O[C@@H]1c1ccc(O)cc1)c1cc(O)c(O)c(O)c1` [compound 15, (−)-epiafzelechin 3-O-gallate], for which the half-inhibitory concentration (IC50) in assay [1] came out at 2.81 µM.

Consider `O=C(O[C@@H]1Cc2c(O)cc(O)cc2O[C@H]1c1cc(O)c(O)c(O)c1)c1cc(O)c(O)c(O)c1` [compound 6, (−)-gallocatechin-3-O-gallate (GCG)], for which it took 0.57 µM to reach half-maximal inhibition in assay [1] (IC50).

Compound `Oc1cc(O)c2c(c1)O[C@H](c1cc(O)c(O)c(O)c1)[C@H](O)[C@H]2c1c(O)cc(O)c2c1O[C@H](c1cc(O)c(O)c(O)c1)[C@H](O)C2` [compound 27, prodelphinidin B2] registered an IC50 in assay [1] of 3.24 µM.

Turning to `Oc1cc(O)c2c(c1)O[C@H](c1ccc(O)c(O)c1)[C@H](O)C2` [compound 3, (−)-epicatechin (EC)], the IC50 in assay [1] was greater than 30 µM.

In the case of `O=C(O[C@@H]1Cc2c(O)cc(O)c([C@@H]3c4c(O)cc(O)cc4O[C@H](c4ccc(O)c(O)c4)[C@H]3O)c2O[C@@H]1c1cc(O)c(O)c(O)c1)c1cc(O)c(O)c(O)c1` [compound 17, (+)-catechin (4α-8) (−)-epigallocatechin 3-O-gallate], the IC50 in assay [1] (inhibitor) is 0.19 µM.

In the case of `COc1cc(C(=O)O[C@@H]2Cc3c(O)cc(O)cc3O[C@@H]2c2ccc(O)c(O)c2)cc(O)c1O` [compound 9, (−)-epicatechin 3-O-(3′-O-methyl)-gallat], in assay [1], the half-maximal inhibitory concentration (IC50) was found to be 0.74 µM.

In turn, `Oc1cc(O)c2c(c1)O[C@H](c1cc(O)c(O)c(O)c1-c1c([C@H]3Oc4cc(O)cc(O)c4C[C@H]3O)cc(O)c(O)c1O)[C@H](O)C2` [compound 37, theasinensin C] displayed an IC50 in assay [1] of 16.4 µM.

As for `Oc1cc(O)c2c(c1)O[C@H](c1ccc(O)c(O)c1)[C@@H](O)[C@@H]2c1c(O)cc(O)c2c1O[C@H](c1ccc(O)c(O)c1)[C@@H](O)C2` [compound 24, procyanidin B3], the IC50 in assay [1] was found to be 3.28 µM.

With `Oc1cc(O)c2c(c1)O[C@H](c1ccc(O)c(O)c1)[C@H](O)[C@H]2c1c(O)cc(O)c2c1O[C@H](c1ccc(O)c(O)c1)[C@H](O)C2` [compound 23, procyanidin B2], inhibition in assay [1] was half-maximal at 8.75 µM (IC50).

In the case of “(−)-epicatechin-3-O-gallate [compound 4]”, inhibition in assay [2] was half-maximal at 0.34 µM (IC50).

“(−)-epigallocatechin-3-O-gallate [compound 7]” yielded an IC50 in assay [2] of 0.39 µM.

For the compound `O=C(O[C@@H]1[C@@H](c2c(O)cc(O)c3c2O[C@H](c2ccc(O)c(O)c2)[C@H](OC(=O)c2cc(O)c(O)c(O)c2)C3)c2c(O)cc(O)cc2O[C@@H]1c1cc(O)c(O)c(O)c1)c1cc(O)c(O)c(O)c1` [compound 14, (−)-epigallocatechin-3-O-gallate-(4β-8)-(−)-epicatechin 3-O-gallate], in assay [1] (inhibitor), it took 0.69 µM to reach half-maximal inhibition (IC50).

As for `O=C(O[C@@H]1Cc2c(O)cc(O)c([C@H]3c4c(O)cc(O)cc4O[C@H](c4cc(O)c(O)c(O)c4)[C@@H]3O)c2O[C@@H]1c1ccc(O)c(O)c1)c1cc(O)c(O)c(O)c1` [compound 12, (−)-epigallocatechin (4β-8)-(−)-epicatechin-3-O-gallate], the IC50 in assay [1] (inhibitor) came out at 1.23 µM.

As to `O=C(/C=C/c1ccc(O)cc1)O[C@@H]1Cc2c(O)cc(O)cc2O[C@@H]1c1cc(O)c(O)c(O)c1` [compound 10, (−)-epigallocatechin-3-O-p-coumaroate], in assay [1], the IC50 amounted to 0.97 µM.

`O=C(O[C@@H]1[C@@H](c2c(O)cc(O)c3c2O[C@H](c2cc(O)c(O)c(O)c2)[C@H](OC(=O)c2cc(O)c(O)c(O)c2)C3)c2c(O)cc(O)cc2O[C@@H]1c1cc(O)c(O)c(O)c1)c1cc(O)c(O)c(O)c1` [compound 29, prodelphinidin B2-3,3′-di-O-gallate] showed an IC50 in assay [2] of 0.1 µM.

Compound `O=C(O[C@@H]1Cc2c(O)cc(O)cc2O[C@@H]1c1cc(O)c(O)c2c(=O)c(O)cc([C@H]3Oc4cc(O)cc(O)c4C[C@H]3O)cc12)c1cc(O)c(O)c(O)c1` [compound 33, theaflavin-3′-O-gallate] returned an IC50 in assay [2] of 0.13 µM.

For `O=C(O[C@@H]1Cc2c(O)cc(O)c([C@H]3c4c(O)cc(O)cc4O[C@H](c4ccc(O)c(O)c4)[C@@H]3O)c2O[C@@H]1c1cc(O)c(O)c(O)c1)c1cc(O)c(O)c(O)c1` [compound 11, (−)-epicatechin(4β-8)-(−)-epigallocatechin 3-O-gallate], the IC50 in assay [1] (inhibitor) came to 0.16 µM.
